Assay results published in ChEMBL document CHEMBL1201862, “PubChem BioAssay data set” (2004).
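Cultured in 96-well plates, cells were exposed to test compound for 48 hours across five concentrations. GI50 marks 50% less growth.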 Activity calls are given as the source filed them. Rule as the data show it: active = GI50 up to about 1.1 µM and inactive = higher.

How the values were obtained:
Experiment in all cases: NCI tumour cell line growth inhibition, 48 h
SW-620 = tested on: SW-620
RXF 393 = tested on: RXF 393
SF-268 = tested on: SF-268
SN12C = tested on: SN12C
SK-MEL-2 = tested on: SK-MEL-2
SF-539 = tested on: SF-539
IGROV-1 = tested on: IGROV-1
OVCAR-4 = tested on: OVCAR-4
A498 = tested on: A498
OVCAR-8 = tested on: OVCAR-8
OVCAR-3 = tested on: OVCAR-3
M14 = tested on: M14
K562 = tested on: K562
RPMI-8226 = tested on: RPMI-8226
U-251 = tested on: U-251
CCRF-CEM = tested on: CCRF-CEM
SK-OV-3 = tested on: SK-OV-3
LOX IMVI = tested on: LOX IMVI
PC-3 = tested on: PC-3

Measured: GI50

CN1CCc2c1nc(-c1cccnc1)c1c2N(C)CC1
inactive: SW-620 > 100 µM | RXF 393 > 100 µM | SF-268 > 100 µM | SN12C > 100 µM | SK-MEL-2 > 100 µM | SF-539 > 100 µM | IGROV-1 > 100 µM | OVCAR-4 > 100 µM | A498 52 µM | OVCAR-8 > 100 µM | OVCAR-3 65.8 µM | M14 > 100 µM | K562 > 100 µM | RPMI-8226 > 100 µM | U-251 > 100 µM | CCRF-CEM > 100 µM | SK-OV-3 > 100 µM | LOX IMVI > 100 µM

Cc1ccccc1C1=C(C(=O)Nc2ccc(Cl)c(Cl)c2)NC(=S)NC1N (centres undefined)
inactive: SW-620 > 100 µM | RXF 393 > 100 µM | SF-268 > 100 µM | SN12C > 100 µM | SK-MEL-2 > 100 µM | SF-539 > 100 µM | IGROV-1 > 100 µM | OVCAR-4 > 100 µM | A498 > 100 µM | OVCAR-8 > 100 µM | OVCAR-3 > 100 µM | M14 > 100 µM | K562 > 100 µM | RPMI-8226 > 100 µM | U-251 > 100 µM | CCRF-CEM > 100 µM | SK-OV-3 > 100 µM | LOX IMVI > 100 µM

Cc1ccccc1C1=[N+]([O-])c2ccccc2C1=O
inactive: SW-620 26.4 µM | RXF 393 21.9 µM | SF-268 20.5 µM | SN12C 17.7 µM | SK-MEL-2 3.22 µM | SF-539 19.1 µM | IGROV-1 18.3 µM | A498 83.8 µM | OVCAR-8 16.7 µM | OVCAR-3 12.7 µM | M14 18.4 µM | K562 20.9 µM | RPMI-8226 39.2 µM | U-251 16.9 µM | CCRF-CEM 18.5 µM | SK-OV-3 > 100 µM | LOX IMVI 18.7 µM

O=c1[nH]c(=O)n(COCCOCc2ccccc2)cc1Nc1ccccc1
inactive: SW-620 > 100 µM | RXF 393 > 100 µM | SF-268 > 100 µM | SN12C > 100 µM | SK-MEL-2 > 100 µM | SF-539 > 100 µM | IGROV-1 > 100 µM | OVCAR-4 > 100 µM | A498 > 100 µM | OVCAR-8 > 100 µM | OVCAR-3 > 100 µM | M14 > 100 µM | K562 > 100 µM | U-251 > 100 µM | PC-3 > 100 µM | CCRF-CEM > 100 µM | SK-OV-3 > 100 µM | LOX IMVI > 100 µM

C=CCC1(CN(C)C)CC/C(=C\c2cc(OC)c(OC)c(OC)c2)C1=O (centres undefined)
inactive: SW-620 18.7 µM | RXF 393 19.2 µM | SF-268 19.2 µM | SN12C 22.3 µM | SK-MEL-2 42.8 µM | SF-539 18.7 µM | IGROV-1 29.4 µM | OVCAR-4 22.2 µM | A498 29.4 µM | OVCAR-8 22.8 µM | OVCAR-3 24 µM | M14 19.4 µM | K562 20.4 µM | RPMI-8226 24.5 µM | U-251 23 µM | CCRF-CEM 23.3 µM | LOX IMVI 23.2 µM

CC(=O)OCC1OC(OC(C)=O)C(NC#N)C(OC(C)=O)C1OC(C)=O (centres undefined)
inactive: SW-620 > 100 µM | RXF 393 > 100 µM | SF-268 > 100 µM | SN12C > 100 µM | SK-MEL-2 50.7 µM | SF-539 > 100 µM | IGROV-1 > 100 µM | OVCAR-4 > 100 µM | A498 > 100 µM | OVCAR-8 > 100 µM | OVCAR-3 > 100 µM | M14 97.7 µM | K562 > 100 µM | RPMI-8226 67.8 µM | U-251 > 100 µM | CCRF-CEM 43.7 µM | SK-OV-3 > 100 µM | LOX IMVI 39.2 µM

Cc1cc(N(CCC#N)CCC#N)ccc1/N=N/c1cccc(Cl)c1
inactive: SW-620 > 100 µM | RXF 393 75 µM | SN12C > 100 µM | SK-MEL-2 > 100 µM | SF-539 > 100 µM | OVCAR-4 > 100 µM | A498 > 100 µM | OVCAR-8 > 100 µM | OVCAR-3 > 100 µM | M14 > 100 µM | K562 3.42 µM | RPMI-8226 > 100 µM | U-251 > 100 µM | CCRF-CEM > 100 µM | SK-OV-3 > 100 µM

CN(C)CCN(C)C(=O)C1CCCN1C(=O)OCc1ccccc1 (centres undefined)
inactive: SW-620 > 100 µM | RXF 393 > 100 µM | SF-268 > 100 µM | SN12C > 100 µM | SK-MEL-2 > 100 µM | SF-539 > 100 µM | IGROV-1 > 100 µM | OVCAR-4 > 100 µM | A498 > 100 µM | OVCAR-8 > 100 µM | OVCAR-3 > 100 µM | M14 > 100 µM | K562 61.1 µM | RPMI-8226 > 100 µM | U-251 > 100 µM | CCRF-CEM 19.4 µM | SK-OV-3 > 100 µM | LOX IMVI > 100 µM

CCCNC1=NC(C)=CSC(Nc2ccccc2)=C1C#N
inactive: SW-620 > 100 µM | RXF 393 > 100 µM | SF-268 > 100 µM | SN12C > 100 µM | SK-MEL-2 > 100 µM | SF-539 > 100 µM | OVCAR-4 > 100 µM | A498 > 100 µM | OVCAR-8 > 100 µM | OVCAR-3 > 100 µM | M14 > 100 µM | K562 > 100 µM | RPMI-8226 > 100 µM | U-251 > 100 µM | PC-3 > 100 µM | SK-OV-3 > 100 µM

O=C/C(=C(/Cl)c1ccc(O)cc1)c1ccccc1
inactive: SW-620 27.6 µM | RXF 393 21.6 µM | SF-268 25 µM | SN12C 24.6 µM | SK-MEL-2 32.7 µM | SF-539 28.6 µM | IGROV-1 26 µM | OVCAR-4 22.2 µM | A498 50.5 µM | OVCAR-8 35.9 µM | OVCAR-3 17.1 µM | M14 27.8 µM | K562 45.3 µM | RPMI-8226 17.2 µM | U-251 24 µM | CCRF-CEM 15.2 µM | SK-OV-3 26.5 µM | LOX IMVI 21.6 µM

CCOC(=O)C1=C(Nc2cccc3ccccc23)OC/C1=N\NC(=O)c1ccccc1O
inactive: SW-620 18.8 µM | RXF 393 3.96 µM | SF-268 13.4 µM | SN12C 23.4 µM | SK-MEL-2 29.8 µM | SF-539 10.6 µM | IGROV-1 4.26 µM | OVCAR-4 9.68 µM | A498 19.5 µM | OVCAR-8 17 µM | OVCAR-3 10.6 µM | M14 21.9 µM | K562 10.1 µM | RPMI-8226 16.7 µM | U-251 23.7 µM | CCRF-CEM 4.86 µM | SK-OV-3 26 µM | LOX IMVI 14.3 µM

CC(C)C1=Cc2ccc3c(c2C(=O)C1=O)CCCC3(C)C [MILTIRONE]
inactive: SW-620 3.15 µM | RXF 393 1.85 µM | SF-268 6.9 µM | SN12C 5.56 µM | SK-MEL-2 17 µM | SF-539 5.33 µM | IGROV-1 5.93 µM | OVCAR-4 1.77 µM | A498 17.4 µM | OVCAR-8 4.29 µM | OVCAR-3 2.58 µM | M14 5.46 µM | K562 2.67 µM | RPMI-8226 2.12 µM | U-251 14.2 µM | CCRF-CEM 1.17 µM | SK-OV-3 18.1 µM | LOX IMVI 12.2 µM
